Assay [1] has as its system TYK2 dependent cell lines (T-ALL cells). To be noted: Sanda et al.; cited from earlier work.
The target in a further assay is T1, JAK1 (Homo sapiens, UniProt P23458).
T1 construct: 866-1154; GST (N); purchased Reaction Biology Corp. (contract assay); host or cells: Baculovirus in Sf21 insect cells
Put plainly: In vitro enzyme inhibition, 33P-ATP filter kinase assay (Reaction Biology). It is filed as biochemical. The method, then:
(§1) Compounds of the invention were assayed for their ability to inhibit TYK2 kinase and other JAK kinases.
(§2) Substrates and kinases used in the assays are identified in Table 2 below.
(§3) JAK3tide=[Ac-[…]-NH2]

A further assay addresses T2, TYK2 kinase (Homo sapiens, UniProt P29597).
T2 construct: 833-1187; GST (N); purchased Reaction Biology Corp. (contract assay); host or cells: Baculovirus in Sf21 insect cells
Described as above. It is filed as biochemical. The protocol:
as §1, §2, §3

A further assay deals with T3, JAK3 (Homo sapiens, UniProt P52333).
T3 construct: 781-1124; GST (N); purchased Reaction Biology Corp. (contract assay); host or cells: Baculovirus in Sf21 insect cells
T3 sequence (P52333 781-1124): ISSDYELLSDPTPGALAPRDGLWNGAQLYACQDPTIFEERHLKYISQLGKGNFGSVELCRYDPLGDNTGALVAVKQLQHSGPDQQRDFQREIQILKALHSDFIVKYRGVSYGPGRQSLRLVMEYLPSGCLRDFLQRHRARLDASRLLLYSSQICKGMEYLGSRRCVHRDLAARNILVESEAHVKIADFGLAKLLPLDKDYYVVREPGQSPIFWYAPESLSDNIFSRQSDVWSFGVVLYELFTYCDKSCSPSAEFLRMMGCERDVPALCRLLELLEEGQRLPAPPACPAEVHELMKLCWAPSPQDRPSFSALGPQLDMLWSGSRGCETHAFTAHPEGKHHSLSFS
The description is as above. It counts as biochemical. The method, then: as §1, §2, §3

Another assay addresses T4, JAK2 (Homo sapiens, UniProt O60674).
T4 construct: 809-1132; GST (N); '+g'; purchased Reaction Biology Corp. (contract assay); host or cells: Baculovirus in Sf21 insect cells
The description is as above. It counts as biochemical. The method, then:
as §1, §2

Assay [2] deals with Jurkat cells (TYK2-dependent T-ALL). Put plainly: Cell proliferation assay (ATPlite, 7 days). It is filed as cell-based. As to conditions: Homo sapiens, 168 h. The method, then: (§4) Jurkat, MOLT-4, CCRF-CEM and CCRF-HSB-2 cells are all TYK2-dependent T-ALL cells. Loucy cells are TYK2-independent T-ALL cell lines. Dexamethasone, Etoposide and Paclitaxel were used as positive controls. Compound effects were studied 7 days after compound addition […] Luminescent product was detected using a BMG FLUOstar plate reader. • The data were analysed using a 4-parameter logistic equation in GraphPad Prism.
For orientation: Cellular ATP, detected with luciferase, serves as a proxy for viable cell number.

Assay [3] concerns CCRF-CEM cells (TYK2-dependent T-ALL). Put plainly: Cell proliferation assay (ATPlite, 7 days). It is filed as cell-based. To be noted: Homo sapiens, 168 h. The protocol:
as §4

Assay [4] deals with CCRF-HSB-2 cells (TYK2-dependent T-ALL). Kind of assay: Cell proliferation assay (ATPlite, 7 days). It counts as cell-based. To be noted: Homo sapiens, CCRF-HSB-2, 168 h. The protocol: as §4
Assay [5] relates to MOLT-4 cells (TYK2-dependent T-ALL). Put plainly: Cell proliferation assay (ATPlite, 7 days). It is filed as cell-based. To be noted: Homo sapiens, MOLT-4, 168 h. The method, then:
as §4

In assay [6] the test system is Loucy cells (TYK2-independent T-ALL). Put plainly: Cell proliferation assay (ATPlite, 7 days). It is filed as cell-based. As to conditions: 168 h. The method, then:
as §4

T2 sequence (P29597 833-1187): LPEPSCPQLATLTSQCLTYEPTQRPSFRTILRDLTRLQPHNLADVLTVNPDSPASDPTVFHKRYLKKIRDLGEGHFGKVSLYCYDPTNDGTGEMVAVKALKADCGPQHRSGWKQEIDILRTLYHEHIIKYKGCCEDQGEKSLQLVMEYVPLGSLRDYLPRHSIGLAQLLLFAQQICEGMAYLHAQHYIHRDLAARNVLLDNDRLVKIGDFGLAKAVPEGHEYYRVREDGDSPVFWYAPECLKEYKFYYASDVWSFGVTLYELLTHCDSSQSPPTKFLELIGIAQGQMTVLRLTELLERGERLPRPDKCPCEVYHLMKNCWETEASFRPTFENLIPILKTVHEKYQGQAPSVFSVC
T4 sequence (O60674 809-1132): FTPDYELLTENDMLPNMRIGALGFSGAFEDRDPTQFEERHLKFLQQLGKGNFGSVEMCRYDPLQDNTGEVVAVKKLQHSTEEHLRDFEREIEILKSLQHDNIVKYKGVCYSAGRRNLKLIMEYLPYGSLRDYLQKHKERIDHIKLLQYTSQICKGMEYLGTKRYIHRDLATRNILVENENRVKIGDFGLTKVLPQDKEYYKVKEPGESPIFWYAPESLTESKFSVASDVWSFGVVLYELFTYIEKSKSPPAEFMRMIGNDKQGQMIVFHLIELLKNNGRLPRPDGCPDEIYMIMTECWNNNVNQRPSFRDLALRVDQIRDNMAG
T1 sequence (P23458 866-1154): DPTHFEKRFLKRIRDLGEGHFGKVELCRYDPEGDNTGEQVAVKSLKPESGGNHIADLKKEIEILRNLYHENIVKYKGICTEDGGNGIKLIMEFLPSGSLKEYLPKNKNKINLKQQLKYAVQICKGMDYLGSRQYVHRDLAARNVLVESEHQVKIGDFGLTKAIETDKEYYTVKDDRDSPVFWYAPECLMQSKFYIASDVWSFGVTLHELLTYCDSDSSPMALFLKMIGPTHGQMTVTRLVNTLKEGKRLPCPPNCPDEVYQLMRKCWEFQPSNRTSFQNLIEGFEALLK

Regarding `C[C@@H]1CCN(C(=O)CC#N)C[C@@H]1N(C)c1ncnc2[nH]ccc12` [CP-690550], the “effect against the T-ALL cells” value in [1] is “ineffective”.

As to `NC(=O)c1nc(-c2c(Cl)cccc2Cl)oc1Nc1ccc(C(=O)N[C@@H]2CCCNC2)cc1` [Compound 28, (R) 2-(2,6-dichloro-phenyl)-5-[4-(piperidin-3-ylcarbamoyl)-phenylamino]-oxazole-4-carboxylic acid amide], the concentration for half-maximal inhibition (IC50) on JAK1 turned out to be 108 nM; against TYK2 kinase, 1.77 nM; against JAK3 it was 194 nM; at JAK2 it was 122 nM.

Turning to `CN1CCC(NC(=O)c2ccc(Nc3oc(-c4c(F)cccc4Cl)nc3C(N)=O)cc2)CC1` [Compound 26, 2-(2-chloro-6-fluoro-phenyl)-5-[4-(1-methyl-piperidin-4-ylcarbamoyl)-phenylamino]-oxazole-4-carboxylic acid amide], the concentration for half-maximal inhibition (IC50) was 100 nM against JAK1, 2.98 nM against TYK2 kinase, 132 nM against JAK3 and 87.8 nM on JAK2.

As for `CCS(=O)(=O)c1ccc(Nc2oc(-c3c(F)cccc3F)nc2C(N)=O)cc1` [Compound 31, 2-(2,6-difluoro-phenyl)-5-(4-ethanesulfonyl-phenylamino)-oxazole-4-carboxylic acid amide], the IC50 on JAK1 amounted to 222 nM; against TYK2 kinase it was 4.41 nM; on JAK3 it was 390 nM; against JAK2, 213 nM.

Regarding `COc1cc([C@@H]2c3cc4c(cc3[C@@H](O[C@@H]3O[C@@H]5CO[C@@H](C)O[C@H]5[C@H](O)[C@H]3O)[C@H]3COC(=O)[C@H]23)OCO4)cc(OC)c1O` [Etoposide, reference compound], the IC50 in [2] was 94 µM; in assay [3], 17 µM; in assay [4], 4.7 µM; in assay [5], 7.7 µM; in [6], 33 µM.

Regarding `CC(=O)O[C@H]1C(=O)[C@@]2(C)[C@H]([C@H](OC(=O)c3ccccc3)[C@]3(O)C[C@H](OC(=O)[C@H](O)[C@@H](NC(=O)c4ccccc4)c4ccccc4)C(C)=C1C3(C)C)[C@]1(OC(C)=O)CO[C@@H]1C[C@@H]2O` [Paclitaxel, reference compound], the half-inhibitory concentration (IC50) in assay [2] came out at 1.8 µM; in [3], 4.4 µM; in [4], 1.3 µM; in assay [5] it was 0.66 µM; in assay [6] it was 2.2 µM.

Consider `NC(=O)c1nc(-c2c(F)cccc2Cl)oc1Nc1ccc(C(=O)N[C@H]2CCCNC2)cc1` [Compound 23, (S) 2-(2-chloro-6-fluoro-phenyl)-5-[4-(piperidin-3-ylcarbamoyl)-phenylamino]-oxazole-4-carboxylic acid amide], for which the IC50 at JAK1 was 63.3 nM; against TYK2 kinase, 1.89 nM; at JAK3, 240 nM; at JAK2, 61.9 nM.

With `NC(=O)c1nc(-c2c(F)cccc2Cl)oc1Nc1ccc(C(=O)N[C@@H]2CCCNC2)cc1` [Compound 24, (R) 2-(2-chloro-6-fluoro-phenyl)-5-[4-(piperidin-3-ylcarbamoyl)-phenylamino]-oxazole-4-carboxylic acid amide], the IC50 is 157 nM at JAK1, 5.11 nM at TYK2 kinase, 167 nM against JAK3 and 125 nM against JAK2.

As for `CN1CCC(NC(=O)c2ccc(Nc3oc(-c4c(Cl)cccc4Cl)nc3C(N)=O)cc2)CC1` [Compound 30, 2-(2,6-dichloro-phenyl)-5-[4-(1-methyl-piperidin-4-ylcarbamoyl)-phenylamino]-oxazole-4-carboxylic acid amide], the half-maximal inhibitory concentration (IC50) amounted to 83.4 nM on JAK1, 1.52 nM on TYK2 kinase, 164 nM at JAK3 and 106 nM against JAK2.

For `CC(C)S(=O)(=O)c1ccc(Nc2oc(-c3c(F)cccc3F)nc2C(N)=O)cc1` [Compound 33], the 50% inhibitory concentration (IC50) at JAK1 was determined as 135 nM; against TYK2 kinase it was 5.47 nM; on JAK3, 516 nM; against JAK2, 153 nM.

On to `CS(=O)(=O)c1ccc(Nc2oc(-c3c(Cl)cccc3Cl)nc2C(N)=O)cc1` [Compound 19, 2-(2,6-dichloro-phenyl)-5-(4-methanesulfonyl-phenylamino)-oxazole-4-carboxylic acid amide], for which the inhibition at 30 µM in [2] (30 μM, read-out: Cell proliferation inh. @ 30 μM, Jurkat) was 8%; in assay [3] (30 μM, read-out: Cell proliferation inh. @ 30 μM, CCRF-CEM), 34%. The values for the half-maximal inhibitory concentration (IC50) in assay [4], in [5] and in assay [6] were 17 µM, 12 µM and 20 µM, respectively.

As to `NC(=O)c1nc(-c2c(Cl)cccc2Cl)oc1Nc1ccc(C(=O)N[C@H]2CCCNC2)cc1` [Compound 27, (S) 2-(2,6-dichloro-phenyl)-5-[4-(piperidin-3-ylcarbamoyl)-phenylamino]-oxazole-4-carboxylic acid amide], the concentration for half-maximal inhibition (IC50) was determined as 72.2 nM on JAK1, 1.21 nM against TYK2 kinase, 233 nM against JAK3 and 93.3 nM on JAK2.

As to `CS(=O)(=O)c1ccc(Nc2oc(-c3c(F)cccc3Cl)nc2C(N)=O)cc1` [Compound 20, 2-(2-chloro-6-fluoro-phenyl)-5-(4-methanesulfonyl-phenylamino)-oxazole-4-carboxylic acid amide], the IC50 in [2] is 2.1 µM; in assay [3], 8.9 µM; in assay [4], 2.8 µM; in assay [5] it was 3.1 µM; in assay [6], 3.9 µM.

Consider `C[C@@H]1C[C@H]2[C@@H]3CCC4=CC(=O)C=C[C@]4(C)[C@@]3(F)[C@@H](O)C[C@]2(C)[C@@]1(O)C(=O)CO` [Dexamethasone, reference compound], for which the inhibition at 10 µM was 5% in assay [2] (10 μM, read-out: Cell proliferation inh. @ 10 μM, Jurkat); 21% in assay [5] (10 μM, read-out: Cell proliferation inh. @ 10 μM, MOLT-4); 25% in [6] (10 μM, read-out: Cell proliferation inh. @ 10 μM, Loucy). Moreover, the IC50 was 59 µM in assay [3] and 49 µM in [4].

As a reminder, the IC50 is the point on the concentration scale where inhibition reaches its midpoint. Lower therefore signals greater potency.

The values are drawn from patent publication US20210401809A1, “PHARMACEUTICAL COMPOUNDS” (Sareum Limited, priority 2016, published 2021).
